Read-outs that look alike come from different tables or passages of the source.
Legend:
[1] = test system: SMN2 mRNA; assay: RT-qPCR splicing assay, SMN2 mRNA; assay type: cell-based, human; conditions: Homo sapiens, canonical junction qPCR panel, Table 4; read-out: SMN2 IC50 (decrease in CJ mRNA levels)
Method in brief: (§1)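 A673 or K562 cells treated 24 h at 37 °C with an 11-point 3-fold dilution series (top 10 uM, DMSO ≤0.25%). Lysates went directly to one-step RT-qPCR quantifying canonical (CJ) and alternative-exon (AJ) junctions, normalized to GAPDH, GUSB or PPIA. Values from ΔΔCt versus DMSO, RQ = 2^(−ΔΔCt), expressed as percentage response.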

[2] = test system: HTT; assay: HiBiT protein abundance assay, HTT (K562 HiBiT knock-in); assay type: cell-based, human; conditions: HiBiT knock-in K562 cells, 24 hours, top dose 10 μM
Method in brief: (§2)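 Endogenously HiBiT-tagged K562 lines were treated for 24 h at 37 °C with 10-point 3-fold dilutions (top 10 μM final, DMSO ≤0.25%). Lytic LgBiT complementation luminescence was normalized between unmodified K562 (PC) and DMSO-treated tagged cells (NC); IC50 was interpolated at 50% from a four-parameter logistic fit.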

[3] = test system: K562 cells; assay: Cell Titer Glo 2.0 cell viability (toxicity) assay, K562; conditions: 500 cells/well, 72 hours
[4] = test system: MYB mRNA; assay: RT-qPCR splicing assay, MYB mRNA canonical (CJ) and alternative (AJ) junction; assay type: cell-based, human; conditions: Homo sapiens; for AC50: MYB alternative junction mRNA, read-out: MYB AJ (increase in AJ mRNA, AC50)
Method in brief: as §1

[5] = test system: MYB; assay: HiBiT protein abundance assay, MYB (K562 HiBiT knock-in); assay type: cell-based, human; conditions: HiBiT knock-in K562 cells, 24 hours, top dose 10 μM
Method in brief: as §2

[6] = MYB canonical junction mRNA, RT-qPCR, read-out: MYB CJ (decrease in CJ mRNA levels, IC50)
[7] = canonical junction qPCR panel, Table 4, read-out: MYB IC50 (decrease in CJ mRNA levels)

## Cc1c(O)c(-c2nc(C(=O)N(C)C)c3cc(N4CCNCC4)ccc3n2)cc2cn(C)nc12 [Compound 502, 2-(6-hydroxy-2,7-dimethylindazol-5-yl)-N,N-dimethyl-6-(piperazin-1-yl)quinazoline-4-carboxamide]
[1]
  IC50: 100 to 1000 nM
[2]
  IC50: 1000 to 10000 nM
[3]
  Effect of Exemplary Compounds on Cell Viability, K562: C (C represents 1000-9999 nM)
[4]; RT-qPCR
  AC50: 1000 to 10000 nM
[4]; [6]
  IC50: 1000 to 10000 nM
[4]; [7]
  IC50: 1000 to 10000 nM
[5]
  IC50: 1000 to 10000 nM

## CCNC(=O)c1nc(-c2cc3cn(C)nc3c(C)c2O)nc2ccc(N3CCNCC3)cc12 [Compound 503, N-ethyl-2-(6-hydroxy-2,7-dimethylindazol-5-yl)-6-(piperazin-1-yl)quinazoline-4-carboxamide]
[1]
  IC50: < 100 nM
[2]
  IC50: < 100 nM
[3]
  Effect of Exemplary Compounds on Cell Viability, K562: A (A represents <100 nM)
[4]; RT-qPCR
  AC50: < 100 nM
[4]; [6]
  IC50: < 100 nM
[4]; [7]
  IC50: < 100 nM
[5]
  IC50: < 100 nM

## CNC(=O)c1nc(-c2cc(F)c3nc(C)cn3c2)nc2ccc(N3CCNCC3)cc12 [Compound 505, 2-{8-fluoro-2-methylimidazo[1,2-a]pyridin-6-yl}-N-methyl-6-(piperazin-1-yl) quinazoline-4-carboxamide]
[1]
  IC50: < 100 nM
[2]
  IC50: 100 to 1000 nM
[3]
  Effect of Exemplary Compounds on Cell Viability, K562: B (B represents 100-1000 nM)
[4]; RT-qPCR
  AC50: < 100 nM
[4]; [6]
  IC50: < 100 nM
[4]; [7]
  IC50: < 100 nM
[5]
  IC50: < 100 nM

## CNC(=O)c1nc(-c2cc3cn(C)nc3c(C)c2O)nc2ccc(N3CCC(N(C)C)CC3)cc12 [Compound 507, 6-[4-(dimethylamino)piperidin-1-yl]-2-(6-hydroxy-2,7-dimethylindazol-5-yl)-N-methylquinazoline-4-carboxamide]
[1]
  IC50: < 100 nM
[2]
  IC50: 100 to 1000 nM
[3]
  Effect of Exemplary Compounds on Cell Viability, K562: A (A represents <100 nM)
[4]; RT-qPCR
  AC50: < 100 nM
[4]; [6]
  IC50: < 100 nM
[4]; [7]
  IC50: < 100 nM
[5]
  IC50: < 100 nM

## CNC(=O)c1nc(-c2cc3cn(C)nc3c(C)c2O)nc2ccc(N3CCC(NC)C3)cc12 (stereo not shown) [Compound 510, 2-(6-hydroxy-2,7-dimethylindazol-5-yl)-N-methyl-6-[3-(methylamino)pyrrolidin-1-yl]quinazoline-4-carboxamide]
[1]
  IC50: < 100 nM
[2]
  IC50: < 100 nM
[3]
  Effect of Exemplary Compounds on Cell Viability, K562: A (A represents <100 nM)
[4]; RT-qPCR
  AC50: < 100 nM
[4]; [6]
  IC50: < 100 nM
[4]; [7]
  IC50: < 100 nM
[5]
  IC50: < 100 nM

## CNC(=O)c1nc(-c2cc3cn(C)nc3c(C)c2O)nc2ccc(N3C[C@@H](C)N[C@@H](C)C3)cc12 [Compound 511, 6-[(3R,5S)-3,5-dimethylpiperazin-1-yl]-2-(6-hydroxy-2,7-dimethylindazol-5-yl)-N-methylquinazoline-4-carboxamide]
[1]
  IC50: < 100 nM
[2]
  IC50: 100 to 1000 nM
[3]
  Effect of Exemplary Compounds on Cell Viability, K562: A (A represents <100 nM)
[4]; RT-qPCR
  AC50: < 100 nM
[4]; [6]
  IC50: < 100 nM
[4]; [7]
  IC50: < 100 nM
[5]
  IC50: < 100 nM

## CC(=O)c1nc(-c2cc3cn(C)nc3c(F)c2O)nc2ccc(N3CCNCC3)cc12 [Compound 513, 1-(2-(7-fluoro-6-hydroxy-2-methyl-2H-indazol-5-yl)-6-(piperazin-1-yl)quinazolin-4-yl)ethan-1-one 2,2,2-trifluoroacetate]
[1]
  IC50: < 100 nM
[2]
  IC50: 100 to 1000 nM
[3]
  Effect of Exemplary Compounds on Cell Viability, K562: A (A represents <100 nM)
[4]; RT-qPCR
  AC50: < 100 nM
[4]; [6]
  IC50: < 100 nM
[4]; [7]
  IC50: < 100 nM
[5]
  IC50: < 100 nM

## Cn1cc2cc(-c3nc(C#N)c4cc(N5CCNCC5)ccc4n3)c(O)c(F)c2n1 [Compound 514, 2-(7-fluoro-6-hydroxy-2-methylindazol-5-yl)-6-(piperazin-1-yl) quinazoline-4-carbonitrile; trifluoroacetic acid]
[1]
  IC50: < 100 nM
[2]
  IC50: 100 to 1000 nM
[3]
  Effect of Exemplary Compounds on Cell Viability, K562: A (A represents <100 nM)
[4]; RT-qPCR
  AC50: < 100 nM
[4]; [6]
  IC50: < 100 nM
[4]; [7]
  IC50: < 100 nM
[5]
  IC50: < 100 nM

## Cc1c(O)c(-c2ccc3cc(N4CCNCC4)cc(F)c3n2)cc2cn(C)nc12 [Compound 515, 5-[8-fluoro-6-(piperazin-1-yl)quinolin-2-yl]-2,7-dimethylindazol-6-ol]
[1]
  IC50: < 100 nM
[2]
  IC50: < 100 nM
[3]
  Effect of Exemplary Compounds on Cell Viability, K562: A (A represents <100 nM)
[4]; RT-qPCR
  AC50: < 100 nM
[4]; [6]
  IC50: < 100 nM
[4]; [7]
  IC50: < 100 nM
[5]
  IC50: < 100 nM

## Cn1cc2cc(-c3ccc4cc(N5CCNCC5)cc(F)c4n3)cc(F)c2n1 [Compound 516, 8-fluoro-2-(7-fluoro-2-methylindazol-5-yl)-6-(piperazin-1-yl)quinoline]
[1]
  IC50: < 100 nM
[2]
  IC50: < 100 nM
[3]
  Effect of Exemplary Compounds on Cell Viability, K562: B (B represents 100-1000 nM)
[4]; RT-qPCR
  AC50: 100 to 1000 nM
[4]; [6]
  IC50: < 100 nM
[4]; [7]
  IC50: < 100 nM
[5]
  IC50: < 100 nM

## Cc1cn2cc(-c3ccc4cc(N5CCNCC5)cc(F)c4n3)cc(F)c2n1 [Compound 517, 8-fluoro-2-{8-fluoro-2-methylimidazo[1,2-a]pyridin-6-yl}-6-(piperazin-1-yl)quinoline]
[1]
  IC50: < 100 nM
[2]
  IC50: < 100 nM
[3]
  Effect of Exemplary Compounds on Cell Viability, K562: A (A represents <100 nM)
[4]; RT-qPCR
  AC50: < 100 nM
[4]; [6]
  IC50: < 100 nM
[4]; [7]
  IC50: < 100 nM
[5]
  IC50: < 100 nM

## Cn1cc2cc(-c3nc(C4CC4)c4cc(N5CCNCC5)ccc4n3)c(O)c(F)c2n1 [Compound 518, 5-[4-cyclopropyl-6-(piperazin-1-yl)quinazolin-2-yl]-7-fluoro-2-methylindazol-6-ol; trifluoroacetic acid]
[1]
  IC50: < 100 nM
[2]
  IC50: 1000 to 10000 nM
[3]
  Effect of Exemplary Compounds on Cell Viability, K562: B (B represents 100-1000 nM)
[4]; RT-qPCR
  AC50: 100 to 1000 nM
[4]; [6]
  IC50: < 100 nM
[4]; [7]
  IC50: < 100 nM
[5]
  IC50: < 100 nM

## Cc1c(O)c(-c2nc(-c3cncs3)c3cc(N4CCNCC4)ccc3n2)cc2cn(C)nc12 [Compound 519, 2,7-dimethyl-5-[6-(piperazin-1-yl)-4-(1,3-thiazol-5-yl)quinazolin-2-yl]indazol-6-ol]
[1]
  IC50: < 100 nM
[2]
  IC50: 1000 to 10000 nM
[3]
  Effect of Exemplary Compounds on Cell Viability, K562: B (B represents 100-1000 nM)
[4]; RT-qPCR
  AC50: 100 to 1000 nM
[4]; [6]
  IC50: 100 to 1000 nM
[4]; [7]
  IC50: 100 to 1000 nM
[5]
  IC50: 100 to 1000 nM

## Cc1c(O)c(-c2ncc3cc(N4CCNCC4)ccc3n2)cc2cn(C)nc12 [Compound 520, 2,7-dimethyl-5-[6-(piperazin-1-yl)quinazolin-2-yl]indazol-6-ol]
[1]
  IC50: < 100 nM
[2]
  IC50: 100 to 1000 nM
[3]
  Effect of Exemplary Compounds on Cell Viability, K562: B (B represents 100-1000 nM)
[4]; RT-qPCR
  AC50: < 100 nM
[4]; [6]
  IC50: 100 to 1000 nM
[4]; [7]
  IC50: 100 to 1000 nM
[5]
  IC50: < 100 nM

## Cc1c(O)c(-c2nc(-c3nnc[nH]3)c3cc(N4CCNCC4)ccc3n2)cc2cn(C)nc12 [Compound 522, 2,7-dimethyl-5-[6-(piperazin-1-yl)-4-(4H-1,2,4-triazol-3-yl)quinazolin-2-yl]indazol-6-ol; bis(trifluoroacetic acid)]
[1]
  IC50: < 100 nM
[2]
  IC50: 1000 to 10000 nM
[3]
  Effect of Exemplary Compounds on Cell Viability, K562: C (C represents 1000-9999 nM)
[4]; RT-qPCR
  AC50: 1000 to 10000 nM
[4]; [6]
  IC50: 1000 to 10000 nM
[4]; [7]
  IC50: 1000 to 10000 nM
[5]
  IC50: 100 to 1000 nM

## Cc1c(O)c(-c2nc(C(N)=O)c3cc(N4CCNCC4)ccc3n2)cc2cn(C)nc12 [Compound 523, 2-(6-hydroxy-2,7-dimethylindazol-5-yl)-6-(piperazin-1-yl) quinazoline-4-carboxamide]
[1]
  IC50: < 100 nM
[2]
  IC50: 100 to 1000 nM
[3]
  Effect of Exemplary Compounds on Cell Viability, K562: A (A represents <100 nM)
[4]; RT-qPCR
  AC50: < 100 nM
[4]; [6]
  IC50: < 100 nM
[4]; [7]
  IC50: < 100 nM
[5]
  IC50: < 100 nM
